Results on 2 molecules are retold here after paper PMC6062912, “The Evolutionary Conserved γ-Core Motif Influences the Anti-Candida Activity of the Penicillium chrysogenum Antifungal Protein PAF” (Frontiers in Microbiology, 2018).

Common to all, as to format: cell-based, Candida albicans
Assay [1] concerns C. albicans. The conditions noted are these: 2 h. The method, then:
Fungistatic or fungicidal activities were determined by incubating C. albicans (10^4 cells mL^-1) in 0.05× PDB with proteins and peptides at 1× MIC and 2× MIC of at 30°C under continuous shaking (800 rpm) in a Thermomixer Comfort (Eppendorf). At defined time points, aliquots were taken and appropriate dilutions were plated on YPD agar in duplicates to promote growth of viable cells. Agar plates were incubated at 37°C for 24 h to count colony forming units (cfu) ([Huber et al., 2018]).
The determination of the MIC concentration is a well-established, reliable method to elucidate the growth reducing effect of an antifungal compound. […] To gain deeper insight into the antifungal mechanism of the generated protein and peptide variants, we compared them first for their fungicidal potential. In liquid culture C. albicans was exposed to 1× MIC and 2× MIC concentrations of each protein and peptide. After certain time points aliquots were taken and appropriate dilutions were spread on agar plates to allow colony formation of viable cells. The cfu were counted and compared to the untreated control, which was set to be 100%. […] The candidacidal effects were aggravated with higher protein concentrations.

Assay [2] deals with C. albicans. The assay can be described thus: ROS production, DCFH-DA fluorometric assay. The conditions noted are these: for ROS signal higher compared to Pγ: 60 min. The method, then: For the detection of ROS generation in C. albicans a dichloro-dihydro-fluorescein diacetate (DCFH-DA, Sigma-Aldrich)-based fluorometric assay was applied, adapted from [Han et al. (2016)]. Cells from an overnight culture of C. albicans, grown on YPD agar, were suspended in 0.05× PDB (Sigma-Aldrich) and the cell number was adjusted to 10^7 cells mL^-1. DCFH-DA stock solution (100 mM in DMSO) was added to the cell suspension to give a final concentration of 100 μM. This cell suspension was pre-incubated for 30 min at 30°C protected from light. Serial dilutions of the test compounds were prepared in 0.05× PDB (Sigma-Aldrich) in 96-well microtiter plates (Nunclon Delta, Thermo Fisher Scientific) in a volume of 100 μL per well. H2O2 served as a positive control for ROS induction. After pre-incubation, the DCFH-DA loaded cells were added to the test compounds (100 μL per well) to give a final volume of 200 μL in each well and the 96-well plate was placed in a multi-mode microplate reader (FLUOstar Omega, BMG Labtech), set to 30°C incubation temperature. The fluorescence signal was recorded every 5 min over a time course of 4 h at excitation and emission wavelengths of 485 and 520 nm, respectively. Measurements were prepared in duplicates and assays were performed at least three times.
Since ROS production is an early marker for programmed cell death, we were also interested whether the investigated AMPs induce ROS in C. albicans. Therefore, C. albicans cells were loaded with DCFH-DA, which is converted intracellularly to the highly fluorescent DCF when oxidized in the presence of ROS ([Chen et al., 2010]). During exposure of the cells to 0–20 μM AMPs the DCF signal intensities were recorded in RFU every 5 min over a time-course of 4 h. The background RFU of 6,757 ± 117 was detected in C. albicans cells that were not exposed to AMPs, but loaded with DCFH-DA, diluted in 0.05× PDB (0.1% DMSO final concentration). The RFU value remained constant over the time of measurement. For all AMPs, we detected a time- and dose-dependent increase of ROS (Supplementary Figure S9) and ROS production was prevented by the addition of 1 mM of the antioxidant ascorbic acid to the highest concentration (20 μM) of each AMP (Supplementary Figure S10).

The subject of another assay is C. albicans biofilms. Briefly: Anti-biofilm activity, FDA fluorescence. The following applies: AMP 0–40 μM for 24 h at 30°C; for concentration inhibiting cell metabolism in biofilm (FDA fluorescence): 24-h-old biofilms; for concentration with anti-biofilm (inhibitory) activity, extinction of FDA fluorescence: 1 h old (young) biofilms. The method, then: The antifungal activity against C. albicans biofilms was determined in 96-well microtiter plates (Nunclon Delta, Thermo Fisher Scientific). Cells (10^5) in 100 μL 0.05× PDB were distributed per well and plates were incubated at 37°C for up to 24 h to allow biofilm formation. After cell adherence, the microtiter plates were washed once with 0.05× PDB and the test substances were added in increasing concentrations in 100 μL 0.05× PDB per well. H2O2 served as a control for cell killing. The plates were further incubated at 30°C for 24 h. The wells were washed once with 0.05× PDB and 100 μL of FDA solution (40 μg mL^-1 in 0.05× PDB) was added to the wells. Wells containing only FDA solution (40 μg mL^-1 in 0.05× PDB) were used as blank background control. The plates were incubated for 1 h at 37°C in the dark before the fluorescence signal intensity was measured in a multi-mode microplate reader (FLUOstar Omega, BMG Labtech) with excitation and emission wavelengths of 485 and 520 nm. All experiments were prepared at least in duplicates and repeated at least twice.
Next, we analyzed the potential of the AMPs to inhibit C. albicans biofilm formation. Low susceptibility of biofilms to antifungal agents is often a limiting factor in anti-Candida treatment. To this end, C. albicans cells were distributed in 96-well microtiter plates, allowed to settle down, and to develop biofilms for 1 and 24 h. Then, planktonic cells were washed off and AMPs were added to the biofilms for another 24 h in a concentration range of 0–40 μM. The biofilms were then quantified by adding FDA to the wells. Metabolically active cells convert non-fluorescent FDA into highly fluorescent fluorescein by intracellular enzymatic activity ([Peeters et al., 2008]). The resulting fluorescence signal intensity from AMP-treated biofilms was measured and compared to untreated conditions. […] Twenty-four-hour-old biofilms, however, were resistant against PAF, PAF^var, and PAF^opt in the investigated concentration range (data not shown).

Like-named read-outs stand apart in the source and are kept apart here. Residues, ends and D or L forms follow the SMILES beside them.

With `CC(=O)N[C@@H](CCCCN)C(=O)N[C@@H](Cc1ccc(O)cc1)C(=O)N[C@H](C(=O)NCC(=O)N[C@@H](CCCCN)C(=O)N[C@@H](CS)C(=O)N[C@@H](CCCCN)C(=O)N[C@H](C(=O)N[C@@H](CCCCN)C(=O)N[C@@H](CCCCN)C(=O)N[C@@H](CC(N)=O)C(=O)N[C@@H](CCCCN)C(=O)N[C@@H](CS)C(=O)N[C@@H](CCCCN)C(N)=O)[C@@H](C)O)[C@@H](C)O` [Pγ^opt] (Ac-KYTGKCKTKKNKCK-NH2), the figures for the “Candida cells killed (cfu vs untreated control)” value in the assay with C. albicans [1] (1) and in the assay on C. albicans [1] (2) were 29 ± 10% and 88 ± 8%, respectively. In addition, the “ROS signal above the background” value in the assay with C. albicans [2] (1.3 μM, 4 h) is recorded as 36%. In addition, in the assay with C. albicans [2] (20 μM, 30 min), the “fluorescence signal above the background (ROS)” value was determined as 31%. For the same molecule, in the assay on C. albicans [2] (20 μM), the “ROS signal higher compared to Pγ” value is reported as “+85%”. Moreover, the “ROS signal above the level induced by Pγ” value in the assay with C. albicans [2] (20 μM, 4 h) turned out to be 446%. In addition, the “concentration inhibiting cell metabolism in biofilm (FDA fluorescence)” value in the assay with C. albicans biofilms stood at 10 µM. The “concentration with anti-biofilm (inhibitory) activity, extinction of FDA fluorescence” value in the assay on C. albicans biofilms was found to be 10 µM.
Turning to `CC(=O)N[C@@H](CCCCN)C(=O)N[C@@H](Cc1ccc(O)cc1)C(=O)N[C@H](C(=O)NCC(=O)N[C@@H](CCCCN)C(=O)N[C@@H](CS)C(=O)N[C@@H](Cc1ccc(O)cc1)C(=O)N[C@@H](CCCCN)C(=O)N[C@@H](CCCCN)C(=O)N[C@@H](CCCCN)C(=O)N[C@@H](CC(N)=O)C(=O)N[C@@H](CCC(=O)O)C(=O)N[C@@H](CS)C(=O)N[C@@H](CCCCN)C(N)=O)[C@@H](C)O` [Pγ^var] (Ac-KYTGKCYKKKNECK-NH2), the “Candida cells killed (cfu vs untreated control)” value in the assay with C. albicans [1] (1× MIC, 0.05× PDB, 30°C, mean ± SD) is “no killing effects”. Besides, the “Candida cells killed (cfu vs untreated control)” value in the assay on C. albicans [1] (2) stood at 50 ± 28%. For the same molecule, the “ROS signal higher compared to Pγ” value with C. albicans [2] (20 μM) is on record as “+50%”. Besides, the “ROS signal above the level induced by Pγ” value in the assay with C. albicans [2] (20 μM, 4 h) was determined as 146%. Further, in the assay on C. albicans biofilms, the “concentration inhibiting cell metabolism in biofilm (FDA fluorescence)” value stood at 20 µM and the “concentration with anti-biofilm (inhibitory) activity, extinction of FDA fluorescence” value was 10 µM.
